Reference: the supplement of paper PMC10307832

Key:
Assay in all cases: relative viability (nuclei count vs DMSO), 5 days (fraction); higher = more cells survive
17-AAG + Bortezomib = compound: C=CCNC1=C2C[C@@H](C)C[C@H](OC)[C@H](O)[C@@H](C)/C=C(\C)[C@H](OC(N)=O)[C@@H](OC)/C=C\C=C(/C)C(=O)NC(=CC1=O)C2=O [17-AAG] + CC(C)C[C@H](NC(=O)[C@H](Cc1ccccc1)NC(=O)c1cnccn1)B(O)O [Bortezomib] (partner 0.002 µM)
Outline: (§1)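 After 5 days of treatment, lung cancer cells in 1536-well plates were fixed and stained in a single step (final 0.05% Triton X-100, 1% formaldehyde, 1 ug/ml Hoechst) and their nuclei counted on 4× images. Treatment had been applied by pin tool the day after seeding as one drug alone or as a fixed anchor-drug dose with five library-drug doses (not always all listed) in √10 steps. Relative viability is the nuclei count of treated wells divided by that of vehicle wells, and values are medians of duplicate plates.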

17-AAG + Navitoclax = compound: C=CCNC1=C2C[C@@H](C)C[C@H](OC)[C@H](O)[C@@H](C)/C=C(\C)[C@H](OC(N)=O)[C@@H](OC)/C=C\C=C(/C)C(=O)NC(=CC1=O)C2=O [17-AAG] + CC1(C)CCC(c2ccc(Cl)cc2)=C(CN2CCN(c3ccc(C(=O)NS(=O)(=O)c4ccc(N[C@H](CCN5CCOCC5)CSc5ccccc5)c(S(=O)(=O)C(F)(F)F)c4)cc3)CC2)C1 [Navitoclax] (partner 0.5 µM)
Outline: as §1

17-AAG + Luminespib = compound: C=CCNC1=C2C[C@@H](C)C[C@H](OC)[C@H](O)[C@@H](C)/C=C(\C)[C@H](OC(N)=O)[C@@H](OC)/C=C\C=C(/C)C(=O)NC(=CC1=O)C2=O [17-AAG] + CCNC(=O)c1noc(-c2cc(C(C)C)c(O)cc2O)c1-c1ccc(CN2CCOCC2)cc1 [Luminespib] (partner 0.01 µM)
Outline: as §1

17-AAG + Dasatinib = compound: C=CCNC1=C2C[C@@H](C)C[C@H](OC)[C@H](O)[C@@H](C)/C=C(\C)[C@H](OC(N)=O)[C@@H](OC)/C=C\C=C(/C)C(=O)NC(=CC1=O)C2=O [17-AAG] + Cc1nc(Nc2ncc(C(=O)Nc3c(C)cccc3Cl)s2)cc(N2CCN(CCO)CC2)n1 [Dasatinib] (partner 0.075 µM)
Outline: as §1

| Cell Line | relative viability (17-AAG + Bortezomib; first compound 0.00128 µM) | relative viability (17-AAG + Bortezomib; first compound 0.004048 µM) | relative viability (17-AAG + Bortezomib; first compound 0.0128 µM) | relative viability (17-AAG + Bortezomib; first compound 0.04048 µM) | relative viability (17-AAG + Bortezomib; first compound 0.128 µM) | relative viability (17-AAG + Navitoclax; first compound 0.00128 µM) | relative viability (17-AAG + Navitoclax; first compound 0.004048 µM) | relative viability (17-AAG + Navitoclax; first compound 0.0128 µM) | relative viability (17-AAG + Navitoclax; first compound 0.04048 µM) | relative viability (17-AAG + Navitoclax; first compound 0.128 µM) | relative viability (17-AAG + Luminespib; first compound 0.00128 µM) | relative viability (17-AAG + Luminespib; first compound 0.004048 µM) | relative viability (17-AAG + Luminespib; first compound 0.0128 µM) | relative viability (17-AAG + Luminespib; first compound 0.04048 µM) | relative viability (17-AAG + Luminespib; first compound 0.128 µM) | relative viability (17-AAG + Dasatinib; first compound 0.00128 µM) | relative viability (17-AAG + Dasatinib; first compound 0.004048 µM) | relative viability (17-AAG + Dasatinib; first compound 0.0128 µM) | relative viability (17-AAG + Dasatinib; first compound 0.04048 µM) | relative viability (17-AAG + Dasatinib; first compound 0.128 µM) |
| --- | --- | --- | --- | --- | --- | --- | --- | --- | --- | --- | --- | --- | --- | --- | --- | --- | --- | --- | --- | --- |
| HCC-44 | 0.865 | 0.854 | 0.903 | 0.466 | 0.142 | 1 | 0.929 | 0.897 | 0.481 | 0.207 | 0.758 | 0.663 | 0.228 | 0.217 | 0.172 | – | – | – | – | – |
| HCC-78 | 0.538 | 0.482 | 0.539 | 0.368 | 0.6 | 0.753 | – | 0.938 | 0.942 | 0.286 | – | – | – | – | – | 0.358 | 0.508 | 0.403 | 0.359 | 0.193 |
| HCC-366 | 0.949 | 0.785 | 0.0604 | 0.0267 | 0.0245 | 1.06 | 1.02 | 0.358 | 0.0314 | 0.0217 | – | – | – | – | – | 0.726 | 0.654 | 0.0387 | 0.0326 | 0.0293 |
| HCC-827 | 0.962 | 0.995 | 1.04 | – | 0.849 | 0.973 | 1.03 | 1.01 | – | 0.944 | 0.579 | 0.706 | 0.652 | – | 0.291 | 0.332 | 0.39 | 0.253 | – | 0.32 |
| HOP-62 | 0.701 | 0.725 | 0.748 | 0.46 | 0.117 | 1.16 | 1.01 | 1.05 | 0.843 | 0.151 | 0.928 | 0.806 | 0.919 | 0.36 | 0.136 | 0.685 | 0.683 | 0.485 | 0.175 | 0.1 |
| IA-LM | 0.886 | 0.604 | 0.766 | 0.326 | 0.0846 | 0.901 | 0.784 | 0.757 | 0.237 | 0.0731 | – | – | – | – | – | – | – | – | – | – |
| LCLC-103H | 1.02 | 1.17 | 1.02 | 1.13 | 1.09 | – | – | – | – | – | 1.04 | 0.891 | 0.98 | 0.999 | 0.798 | 0.446 | 0.522 | 0.464 | 0.456 | 0.46 |
| LK-2 | – | – | – | – | – | 1.11 | 0.97 | 0.619 | 0.285 | 0.171 | 0.201 | 0.162 | 0.181 | 0.17 | 0.177 | 0.285 | 0.396 | 0.224 | 0.157 | 0.116 |
| NCI-H358 | – | – | – | – | – | – | – | – | – | – | 0.273 | 0.235 | 0.121 | 0.0893 | 0.0737 | 0.216 | 0.117 | 0.0644 | 0.0712 | 0.0579 |
| NCI-H522 | – | – | – | – | – | – | – | – | – | – | 0.902 | 1.03 | 0.948 | 1.02 | 0.451 | 0.822 | 0.799 | 0.77 | 0.632 | 0.443 |
| NCI-H650 | 0.78 | 0.99 | 0.669 | 0.236 | 0.204 | – | – | – | – | – | 0.884 | 0.601 | 0.607 | 0.386 | 0.171 | 0.427 | 0.468 | 0.4 | 0.256 | 0.136 |
